For 13 compounds, IC50 results are on record in patent US20110152326A1, “SUBSTITUTED ARYLOXOETHYL CYCLOPROPANECARBOXAMIDE COMPOUNDS AS VR1 RECEPTOR ANTAGONISTS” (priority 2005, published 2011).

Molecules are shown by their SMILES. pIC50: −log10 of the molar value.

In the assay the target is T1, human VR1 receptors (Homo sapiens, UniProt Q8NER1).
T1 construct: host or cells: cells that highly express human VR1 receptors
The experiment in a line: Human VR1 antagonist assay, Ca2+ imaging, capsaicin stimulation. Format: cell-based. The note with it: human VR1 expressing cells; concentration required to reduce capsaicin-evoked Ca2+ influx by 50%; capsaicin 300 nM; read-out: hVR1 IC50. The source says:
VR1 antagonistic activity can be determined by the Ca^2+ imaging assay using human VR1 highly expressing cells. The cells that highly express human VR1 receptors are obtainable from several different conventional methods. The one standard method is cloning from human Dorsal Root Ganglion (DRG) or kidney according to the methods such as described in the journal article; Nature, 389, pp 816-824, 1997. Alternatively VR1 receptors highly expressing human keratinocytes are also known and published in the journal article (Biochemical and Biophysical Research Communications, 291, pp 124-129, 2002). […] Further more, the method to up regulate human VR1 gene, which is usually a silent gene or don't produce detectable level of VR1 receptors, is also available to obtain propriety cells. Such genetic modification method was described in detail; Nat. Biotechnol., 19, pp 440-445, 2001.
The cells that express human VR1 receptors were maintained in culture flask at 37° C. in an environment containing 5% CO2 until use in the assay. The intracellular Ca^2+ imaging assay to determine VR1 antagonistic activities were done by following procedures.
The culture medium was removed from the flask and fura-2/AM fluorescent calcium indicator was added to the flask at a concentration of 5 μM in the medium. The flask was placed in CO2 incubator and incubated for 1 hour. Then the cells expressing the human VR1 receptors were detached from the flask follow by washing with phosphate buffer saline, PBS(−) and re-suspended in assay buffer. The 80 μl of aliquot of cell suspension (3.75×10^5 cells/ml) was added to the assay plate and the cells were spun down by centrifuge (950 rpm, 20° C., 3 minutes).
The capsaicin-induced changes in the intracellular calcium concentration were monitored using FDSS 6000 (Hamamatsu Photonics, Japan), a fluorometric imaging system. The cell suspension in Krebs-Ringer HEPES (KRH) buffer (115 mM NaCl, 5.4 mM KCl, 1 mM MgSO4, 1.8 mM CaCl2, 11 mM D-Glucose, 25 mM HEPES, 0.96 mM Na2HPO4, pH 7.3) were pre-incubated with varying concentrations of the test compounds or KRH buffer (buffer control) for 15 minutes at room temperature under the dark condition. Then capsaicin solution, which gives 300 nM in assay mixture, was automatically added to the assay plate by the FDSS 6000.
The monitoring of the changes in the fluorescence signals (λex=340 nm/380 nm, λem=510-520 nm) was initiated at 1 minute prior to the addition of capsaicin solution or acidic buffer and continued for 5 minute.

T1 sequence (Q8NER1 whole entry): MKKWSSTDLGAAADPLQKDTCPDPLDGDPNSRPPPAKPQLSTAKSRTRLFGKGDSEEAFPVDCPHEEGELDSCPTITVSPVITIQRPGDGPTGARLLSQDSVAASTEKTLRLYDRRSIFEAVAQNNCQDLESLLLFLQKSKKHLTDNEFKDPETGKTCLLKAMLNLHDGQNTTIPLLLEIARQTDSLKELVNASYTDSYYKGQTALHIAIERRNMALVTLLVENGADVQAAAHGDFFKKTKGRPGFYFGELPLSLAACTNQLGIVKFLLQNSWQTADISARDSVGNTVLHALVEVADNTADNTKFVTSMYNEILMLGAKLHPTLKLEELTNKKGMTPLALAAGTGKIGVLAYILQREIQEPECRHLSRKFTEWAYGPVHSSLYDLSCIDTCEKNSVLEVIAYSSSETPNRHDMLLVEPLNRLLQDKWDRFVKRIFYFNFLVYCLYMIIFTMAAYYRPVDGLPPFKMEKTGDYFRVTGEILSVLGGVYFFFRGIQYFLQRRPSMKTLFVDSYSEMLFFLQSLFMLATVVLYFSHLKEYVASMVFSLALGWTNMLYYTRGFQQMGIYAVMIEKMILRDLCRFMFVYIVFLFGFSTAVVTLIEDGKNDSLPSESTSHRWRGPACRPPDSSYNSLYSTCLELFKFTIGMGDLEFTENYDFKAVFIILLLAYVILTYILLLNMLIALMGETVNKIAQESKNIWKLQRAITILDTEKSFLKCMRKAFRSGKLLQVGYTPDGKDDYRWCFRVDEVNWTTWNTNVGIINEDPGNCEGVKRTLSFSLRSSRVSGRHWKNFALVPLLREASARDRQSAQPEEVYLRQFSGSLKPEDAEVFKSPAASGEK

Turning to `Cc1cccnc1C(=O)CNC(=O)C1CC1c1ccc(C(C)(C)C)cc1` (stereo not shown) [Example 1, 2-(4-Tert-Butylphenyl)-N-[2-(3-Methylpyridin-2-yl)-2-Oxoethyl]Cyclopropanecarboxamide], the pIC50 is 6.99.

Regarding `COc1ccc(C)c(C(=O)CNC(=O)C2CC2c2ccc(C(C)(C)C)cc2)c1` (stereo not shown) [Example 2, 2-(4-Tert-Butylphenyl)-N-[2-(5-Methoxy-2-Methylphenyl)-2-Oxoethyl]Cyclopropanecarboxamide], the pIC50 is 6.00.

Take `Cc1ccc(O)cc1C(=O)CNC(=O)C1CC1c1ccc(C(C)(C)C)cc1` (stereo not shown) [Example 3, 2-(4-Tert-Butylphenyl)-N-[2-(5-Hydroxy-2-Methylphenyl)-2-Oxoethyl]Cyclopropanecarboxamide]: the pIC50 was 6.15.

Take `Cc1cccnc1C(=O)CNC(=O)C1CC1c1ccc(C(C)(C)C)c(F)c1` (stereo not shown) [Example 4, 2-(4-Tert-Butyl-3-Fluorophenyl)-N-[2-(3-Methylpyridin-2-yl)-2-Oxoethyl]Cyclopropanecarboxamide]: the pIC50 is 7.00.

Turning to `Cc1cccnc1C(=O)CNC(=O)C1CC1c1ccc(C(C)(C)C(F)(F)F)cc1` (stereo not shown) [Example 5, N-[2-(3-Methylpyridin-2-yl)-2-Oxoethyl]-2-[4-(2,2,2-Trifluoro-1,1-Dimethylethyl)Phenyl]Cyclopropanecarboxamide], the pIC50 was 6.95.

As to `Cc1cccnc1C(=O)CNC(=O)C1CC1(C)c1ccc(C(C)(C)C)cc1` (stereo not shown) [Example 6, 2-(4-Tert-Butylphenyl)-2-Methyl-N-[2-(3-Methylpyridin-2-yl)-2-Oxoethyl]Cyclopropanecarboxamide], the pIC50 is 6.87.

For the compound `Cc1cccnc1C(=O)CNC(=O)C1CC1c1ccc(C(C)(C)C)c(Cl)c1` (stereo not shown) [Example 7, 2-(4-Tert-Butyl-3-Chlorophenyl)-N-[2-(3-Methylpyridin-2-yl)-2-Oxoethyl]Cyclopropanecarboxamide], the negative-log IC50 (pIC50) is 7.04.

Consider `CC(C)(C)c1ccc(C2CC2C(=O)NCC(=O)c2ncccc2C(F)(F)F)cc1F` (stereo not shown) [Example 8, 2-(4-Tert-Butyl-3-Fluorophenyl)-N-[2-(3-Trifluoromethylpyridin-2-yl)-2-Oxoethyl]Cyclopropanecarboxamide], for which the pIC50 is 6.99.

Consider `Cc1cccnc1C(=O)CNC(=O)C1C(c2ccc(C(C)(C)C)cc2)C1(F)F` (stereo not shown) [Example 9, 3-(4-Tert-Butylphenyl)-2,2-Difluoro-N-[2-(3-Methylpyridin-2-yl)-2-Oxoethyl]Cyclopropanecarboxamide], for which the negative logarithm of the IC50 (pIC50) was 6.51.

Consider `Cn1ccnc1C(=O)CNC(=O)C1CC1c1ccc(C(C)(C)C)c(F)c1` (stereo not shown) [Example 10, 2-(4-Tert-Butyl-3-Fluorophenyl)-N-[2-(1-Methyl-1H-Imidazol-2-yl)-2-Oxoethyl]Cyclopropanecarboxamide], for which the pIC50 was 6.62.

Turning to `Cn1ccnc1C(=O)CNC(=O)C1CC1(C)c1ccc(C(C)(C)C(F)(F)F)cc1` (stereo not shown) [Example 11, 2-Methyl-N-[2-(1-Methyl-1H-Imidazol-2-yl)-2-Oxoethyl]-2-[4-(2,2,2-Trifluoro-1,1-Dimethylethyl)Phenyl]Cyclopropanecarboxamide], the pIC50 was 6.35.

With `CCn1ccnc1C(=O)CNC(=O)C1CC1(C)c1ccc(C(C)(C)C(F)(F)F)cc1` (stereo not shown) [Example 12, N-[2-(1-Ethyl-1H-Imidazol-2-yl)-2-Oxoethyl]-2-Methyl-2-[4-(2,2,2-Trifluoro-1,1-Dimethylethyl)Phenyl]Cyclopropanecarboxamide], the pIC50 was 6.47.

As for `CCn1ccnc1C(=O)CNC(=O)C1CC1c1cc(F)c(C(C)(C)C(F)(F)F)c(F)c1` (stereo not shown) [Example 13, 2-[3,5-Difluoro-4-(2,2,2-Trifluoro-1,1-Dimethylethyl)Phenyl]-N-[2-(1-Ethyl-1H-Imidazol-2-yl)-2-Oxoethyl]Cyclopropanecarboxamide], the pIC50 was 7.16.
